This is an account of results in PMC10653547, “Synergistic effect of two antimicrobial peptides, BP203 and MAP-0403 J-2 with conventional antibiotics against colistin-resistant Escherichia coli and Klebsiella pneumoniae clinical isolates” (PLOS ONE, 2023).

For assay [1], the system named is colistin-resistant E. coli clinical isolates. The assay is described as follows: Disk diffusion antimicrobial susceptibility testing (CLSI). The assay is classed as cell-based, Escherichia coli. The settings on record: for %Resistance: ten E. coli isolates, disk diffusion. As to the method:
(§1) Ten non-duplicate clinical isolates of colistin-resistant E. coli (EC) and ten non-duplicate clinical isolates of colistin-resistant K. pneumoniae (KP) were obtained from the bacterial repository of the Division of Infectious Diseases and Tropical Medicine, Department of Medicine, Faculty of Medicine Siriraj Hospital, Mahidol University. The species identification was conducted through standard biochemical tests. Antimicrobial susceptibility testing was carried out using the disk diffusion method following CLSI guidelines. Additionally, the assessment of colistin resistance in all isolates was performed by broth microdilution following CLSI recommendations. […] The amino acid sequences of BP203 and MAP-0403 J-2 were retrieved from previous studies. These peptides are BP100 and MAP-0403 analogs, respectively. […] Antibiotic disks and defibrinated sheep blood were obtained from Oxoid (Basingstoke, UK). All culture media were purchased from Becton Dickinson (Frankin Lakes, NJ, USA). All chemicals were obtained from Sigma-Aldrich (St. Louis, MO, USA).
(In general: Agar diffusion results depend on both activity and mobility in agar.)

Assay [2] deals with colistin-resistant K. pneumoniae clinical isolates. The description is as above. The assay is classed as cell-based, Klebsiella pneumoniae. The settings on record: for %Resistance: ten K. pneumoniae isolates, disk diffusion. How it is done: as §1

Take `CO[C@@]1(NC(=O)Cc2cccs2)C(=O)N2C(C(=O)O)=C(COC(N)=O)CS[C@@H]21` [FOX, cefoxitin]: the “Interpreted results of disk diffusion” value in assay [1] (EC-01) is recorded as “S”; in assay [1] (EC-02), “S”; in assay [1] (EC-03), “S”; in assay [1] (EC-04) it was “I”; in assay [1] (EC-05) it was “S”; in assay [1] (EC-06), “S”. The “Interpreted results of disk diffusion” value in assay [1] (EC-07) is recorded as “S”; in assay [1] (EC-08), “S”; in assay [1] (EC-09), “S”; in assay [1] (EC-10), “S”; in assay [2] (KP-01), “R”; in assay [2] (KP-02), “R”. Also, the “Interpreted results of disk diffusion” value in assay [2] (KP-03), in assay [2] (KP-04), in assay [2] (KP-05), in assay [2] (KP-06), in assay [2] (KP-07) and in assay [2] (KP-08) was “R” throughout. Further, the “Interpreted results of disk diffusion” value in assay [2] (KP-09) and in assay [2] (KP-10) was “R” each time. Also, the “%Resistance” value in assay [1] turned out to be 0%; in assay [2] it was 100%.
`CNC(C)C1CCC(N)C(OC2C(N)CC(N)C(OC3OCC(C)(O)C(NC)C3O)C2O)O1` (centres unmarked) [GM, gentamicin]: the “Interpreted results of disk diffusion” value in assay [1] (EC-01) is reported as “R”; in assay [1] (EC-02), “S”; in assay [1] (EC-03) it was “R”; in assay [1] (EC-04) it was “R”; in assay [1] (EC-05), “R”; in assay [1] (EC-06) it was “R”. In addition, the “Interpreted results of disk diffusion” value in assay [1] (EC-07) was “S”; in assay [1] (EC-08), “R”; in assay [1] (EC-09) it was “R”; in assay [1] (EC-10), “R”; in assay [2] (KP-01), “S”; in assay [2] (KP-02), “R”. In addition, the “Interpreted results of disk diffusion” value in assay [2] (KP-03), in assay [2] (KP-04), in assay [2] (KP-05), in assay [2] (KP-06), in assay [2] (KP-07) and in assay [2] (KP-08) was “S” throughout. For the same compound, the “Interpreted results of disk diffusion” value in assay [2] (KP-09) and in assay [2] (KP-10) was “S” in each case. In addition, the entries for the “%Resistance” value in assay [1] and in assay [2] were 80% and 10%, respectively.
